In this assay the target is T1, human PTP1B (Homo sapiens, UniProt P18031).
T1 construct: but without the carboxy-terminal hydrophobic region (corresponding to 1-299 aa); made in house; host or cells: Sf9 insect cells (Spodoptera frugiperda), Bac-to-Bac baculovirus system
T1 sequence (P18031 1-299): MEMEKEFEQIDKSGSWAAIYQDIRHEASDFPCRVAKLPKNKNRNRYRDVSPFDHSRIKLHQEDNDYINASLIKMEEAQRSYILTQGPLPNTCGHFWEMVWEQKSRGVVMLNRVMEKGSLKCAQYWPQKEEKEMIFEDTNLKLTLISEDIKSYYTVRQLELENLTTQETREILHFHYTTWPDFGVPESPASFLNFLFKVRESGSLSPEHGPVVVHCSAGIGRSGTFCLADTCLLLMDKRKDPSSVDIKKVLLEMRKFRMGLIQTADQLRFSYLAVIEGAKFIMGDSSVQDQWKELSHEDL
Put plainly: PTP Assay PTP1B DiFMUP (enzymatic test for inhibition of a phosphatase). In kind it is biochemical. The conditions noted are these: recombinant hPTP1B (aa 1-299, expressed in Sf9 cells); substrate DiFMUP per table head; read-out: IC-50 (μM) PTP Assay PTP1B DiFMUP.

In the case of `O=C(O)c1cc(-c2csc(Nc3ccc(-c4ccccc4)cc3)n2)ccc1O` [Example 17], the IC50 was determined as 0.7 µM.

The values are drawn from patent US7741491B2, “Diphenylamine-substituted salicylthiazole derivatives and related compounds as phosphotyrosine phosphatase 1B (PTB1B) inhibitors for using as blood-sugar decreasing active ingredients for treating diabetes” (Sanofi-Aventis Deutschland GmbH, priority 2004, dated 2010).
